US11713309B2, “Solid forms of Cerdulatinib” (Alexion Pharmaceuticals, Inc., priority 2018, dated 2023)
Counter-ions that a name gives are not always drawn.

Experiments:
Assay type in all cases: physicochemical
[1] = Kinetic solubility in SGF; settings: listed as Mesylate Type A
Experimental: (§1) Kinetic solubility testing was conducted as follows: About 40-55 mg material was weighed into a 5-mL EP pipe. 4 mL of water/bio-relevant media (SGF, FaSSIF, or FeSSIF) was added into the corresponding sample pipe (drug loading: ˜10 mg/mL calculated as freebase). The pipes were capped tightly and the material was verified to be in contact with the media. The sample vials were placed on a roller and start rolling at 37° C. (rate: 25 r/min). Samples were taken at 1, 2, 4, 24 h. For each time point, 1.0 mL of suspension was transferred into a 2-mL centrifuge tube and the samples were centrifuged. The supernatant was filtered via 0.45 μm PTFE membrane and solubility and pH were measured. An XRPD test on residual solids was conducted.

[2] = Kinetic solubility in FaSSIF; settings: listed as Mesylate Type A
Experimental: as §1

[3] = Kinetic solubility in FeSSIF; settings: listed as Mesylate Type A
Experimental: as §1

[4] = Kinetic solubility in water; settings: 37° C., listed as Mesylate Type A; for pH of supernatant: water (native pH 7.6)
Experimental: as §1

Which results are given for `CCS(=O)(=O)N1CCN(c2ccc(Nc3ncc(C(N)=O)c(NC4CC4)n3)cc2)CC1` [Compound I mesylate Type A, 4-(cyclopropylamino)-2-(4-(4-(ethylsulfonyl)piperazin-1-yl)phenylamino)pyrimidine-5-carboxamide]?
Solubility (mg/mL) 1 h ([1]; SGF, 37° C., 1 h, drug loading ~10 mg/mL as freebase): 0.081 mg/mL; Solubility (mg/mL) 2 h ([1]; SGF, 37° C., 2 h): 0.096 mg/mL; Solubility (mg/mL) 4 h ([1]; SGF, 37° C., 4 h): 0.080 mg/mL; Solubility (mg/mL) 24 h ([1]; SGF, 37° C., 24 h): 0.076 mg/mL; pH 1 h ([1]; supernatant, SGF (native pH 1.8), 1 h): 1.9; pH 2 h ([1]; supernatant, SGF (native pH 1.8), 2 h): 2.0; pH 4 h ([1]; supernatant, SGF (native pH 1.8), 4 h): 2.0; pH 24 h ([1]; supernatant, SGF (native pH 1.8), 24 h): 1.9; Solubility (mg/mL) 1 h ([2]; FaSSIF, 37° C., 1 h, drug loading ~10 mg/mL as freebase): 0.062 mg/mL; Solubility (mg/mL) 2 h ([2]; FaSSIF, 37° C., 2 h): 0.055 mg/mL; Solubility (mg/mL) 4 h ([2]; FaSSIF, 37° C., 4 h): 0.039 mg/mL; Solubility (mg/mL) 24 h ([2]; FaSSIF, 37° C., 24 h): 0.020 mg/mL; pH 1 h ([2]; supernatant, FaSSIF (native pH 6.5), 1 h): 4.1; pH 2 h ([2]; supernatant, FaSSIF (native pH 6.5), 2 h): 3.7; pH 4 h ([2]; supernatant, FaSSIF (native pH 6.5), 4 h): 3.6; pH 24 h ([2]; supernatant, FaSSIF (native pH 6.5), 24 h): 4.0; Solubility (mg/mL) 1 h ([3]; 37° C., 1 h, drug loading ~10 mg/mL as freebase): 0.023 mg/mL; Solubility (mg/mL) 2 h ([3]; 37° C., 2 h): 0.020 mg/mL; Solubility (mg/mL) 4 h ([3]; 37° C., 4 h): 0.0084 mg/mL; Solubility (mg/mL) 24 h ([3]; 37° C., 24 h): 0.0083 mg/mL; Final Form ([3]; XRPD of residual solids, 1 h, 2 h, 4 h, 24 h (merged cell)): Freebase Form II; pH 1 h ([3]; supernatant, 1 h): 4.7; pH 2 h ([3]; supernatant, 2 h): 4.5; pH 4 h ([3]; supernatant, 4 h): 4.6; pH 24 h ([3]; supernatant, 24 h): 4.6; pH of supernatant ([4]; 1 h): 1.9; pH of supernatant ([4]; 2 h): 1.9; pH of supernatant ([4]; 4 h): 2.2; pH of supernatant ([4]; 24 h): 2.0; Final Form of residual solids (XRPD) ([4]; water, 1 h, 2 h, 4 h, 24 h): Freebase Form II; Kinetic solubility ([4]; water, 1 h): 1400 µg/mL; Kinetic solubility ([4]; water, 2 h): 1300 µg/mL; Kinetic solubility ([4]; water, 4 h): 1300 µg/mL; Kinetic solubility ([4]; water, 24 h): 1300 µg/mL
